We go through eight compounds from ChEMBL document CHEMBL5550215, “Discovery of Novel Imidazo[1,2-a]pyridine-Based HDAC6 Inhibitors as an Anticarcinogen with a Cardioprotective Effect” (J Med Chem, 2024).

The source made the active and inactive calls. The rule behind the calls is not given here.

One experiment deals with PANC-1. The experiment is described as follows: Antiproliferative activity against human PANC-1 cells assessed as inhibition of cell growth by MTT assay. A general note: Tetrazolium dyes change colour on reduction, which living cells bring about.
The next experiment has as its system NCI-H460. The experiment in a line: Antiproliferative activity against human NCI-H460 cells assessed as inhibition of cell growth by MTT assay.
The subject of the next experiment is TE-1. The experiment is described as follows: Antiproliferative activity against human TE-1 cells assessed as inhibition of cell growth by MTT assay.
The next experiment concerns PC-3. The experiment in a line: Antiproliferative activity against human PC-3 cells assessed as inhibition of cell growth by MTT assay.
In a further experiment the test system is MGC-803. The experiment in a line: Antiproliferative activity against human MGC-803 cells assessed as inhibition of cell growth by MTT assay.
Another experiment concerns HCT-116. The experiment in a line: Antiproliferative activity against human HCT-116 cells assessed as inhibition of cell growth by MTT assay.
Experiment [1] deals with H9c2. The experiment is described as follows: Protection against H2O2 induced myocardial cell injury in rat H9c2 cells at 10 uM pretreated for 24 hrs followed by H2O2 exposure and measured after 1.5 hrs (reference value: 17.91 to 57.32%). The class given is functional. To be noted: time 25.5 hrs.
The test system of the next experiment is SMMC-7721. The experiment in a line: Antiproliferative activity against human SMMC-7721 cells assessed as inhibition of cell growth by MTT assay.
In experiment [2] the test system is H9c2. The experiment is described as follows: Protection against H2O2 induced myocardial cell injury in rat H9c2 cells assessed as fold change at 10 uM pretreated for 24 hrs followed by H2O2 exposure and measured after 1.5 hrs relative to H2O2 alone. The class given is functional. To be noted: time 25.5 hrs.
The test system of experiment [3] is H9c2. The experiment in a line: Protection against H2O2 induced myocardial cell injury in rat H9c2 cells assessed as fold change at 5 uM pretreated for 24 hrs followed by H2O2 exposure and measured after 1.5 hrs relative to H2O2 alone. In kind it is functional. Particulars: time 25.5 hrs.
Experiment [4] relates to H9c2. The experiment in a line: Protection against H2O2 induced myocardial cell injury in rat H9c2 cells at 5 uM pretreated for 24 hrs followed by H2O2 exposure and measured after 1.5 hrs (reference value: 41.79+/-1.59%). The class given is functional. Particulars: time 25.5 hrs.
The target in experiment [5] is T1, Protein deacetylase HDAC6 (Homo sapiens) (UniProt Q9UBN7).
T1 sequence (whole entry): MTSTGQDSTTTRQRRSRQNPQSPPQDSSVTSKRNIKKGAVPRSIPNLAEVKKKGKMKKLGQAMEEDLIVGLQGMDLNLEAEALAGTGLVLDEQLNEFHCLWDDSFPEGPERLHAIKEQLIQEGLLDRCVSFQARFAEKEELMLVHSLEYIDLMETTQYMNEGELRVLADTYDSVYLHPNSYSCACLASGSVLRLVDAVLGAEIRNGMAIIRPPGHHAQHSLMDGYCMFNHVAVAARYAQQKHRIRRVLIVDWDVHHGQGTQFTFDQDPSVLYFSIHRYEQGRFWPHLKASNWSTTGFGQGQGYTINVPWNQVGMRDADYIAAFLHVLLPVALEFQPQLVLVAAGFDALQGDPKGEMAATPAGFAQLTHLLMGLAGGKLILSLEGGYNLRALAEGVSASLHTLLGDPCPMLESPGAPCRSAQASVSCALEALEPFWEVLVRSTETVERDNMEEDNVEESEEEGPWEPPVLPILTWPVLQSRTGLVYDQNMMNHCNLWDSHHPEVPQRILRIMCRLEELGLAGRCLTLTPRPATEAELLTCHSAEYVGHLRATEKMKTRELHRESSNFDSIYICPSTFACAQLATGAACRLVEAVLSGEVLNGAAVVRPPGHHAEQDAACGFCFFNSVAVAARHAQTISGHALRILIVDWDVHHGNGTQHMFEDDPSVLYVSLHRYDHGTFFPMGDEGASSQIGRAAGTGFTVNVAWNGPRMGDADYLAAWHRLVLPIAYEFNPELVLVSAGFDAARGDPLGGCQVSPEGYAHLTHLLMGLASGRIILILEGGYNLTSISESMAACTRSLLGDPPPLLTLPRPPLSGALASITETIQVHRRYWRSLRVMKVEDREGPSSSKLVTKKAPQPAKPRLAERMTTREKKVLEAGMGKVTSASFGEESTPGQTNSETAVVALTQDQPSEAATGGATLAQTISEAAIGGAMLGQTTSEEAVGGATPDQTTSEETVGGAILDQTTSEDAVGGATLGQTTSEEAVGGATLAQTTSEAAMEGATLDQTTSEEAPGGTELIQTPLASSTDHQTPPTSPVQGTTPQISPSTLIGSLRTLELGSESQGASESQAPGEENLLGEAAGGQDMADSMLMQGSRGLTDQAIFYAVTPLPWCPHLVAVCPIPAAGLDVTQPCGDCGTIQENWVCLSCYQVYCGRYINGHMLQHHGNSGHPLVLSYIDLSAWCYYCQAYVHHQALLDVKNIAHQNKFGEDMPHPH
Particulars: dose 100.0 nM.
Description: Inhibition of HDAC6 (unknown origin) at 100 nM relative to control

For experiment [6], the system named is Mus musculus. The experiment in a line: Cardioprotective activity against myocardial ischemia/reperfusion induced C57BL/6J mouse model assessed as effect on infarct size of mouse heart at 10 mg/kg by TTC staining based analysis. The class given is functional, organism-based.
Experiment [7] concerns Mus musculus. The experiment is described as follows: Cardioprotective activity against myocardial ischemia/reperfusion induced C57BL/6J mouse model assessed as reduction in ST-segment elevation at 10 mg/kg. The class given is functional, organism-based.

As to `Cc1cccc(-c2cc(C(=O)NCc3ccc(C(=O)NO)cc3)c3nccn3c2)c1`, the IC50 is over 10 µM with PANC-1; over 10 µM with NCI-H460; 2.77 µM with TE-1; over 10 µM with PC-3; 3.47 µM in the experiment with MGC-803; 5.7 µM in the experiment with HCT-116. The IC50 in the experiment on SMMC-7721 was 1.98 µM. In addition, the Activity in the experiment on H9c2 [1] turned out to be 74.81%.
With `O=c1cc(-c2ccc(O)c(O)c2)oc2cc(O)cc(O)c12` [LUTEOLIN], the “fold change (FC)” value in the experiment on H9c2 [2] was 2.53; in the experiment with H9c2 [3] it was 2.07. The Activity is listed as 86.37% in the experiment on H9c2 [4] and 91.43% in the experiment with H9c2 [1]. This compound yielded an inhibition in [5] of 1%.
Turning to `O=C(NO)c1ccc(NCc2cc(-c3cccc(Cl)c3)cn3ccnc23)cc1`, the IC50 in the experiment with PANC-1 is over 10 µM; in the experiment with NCI-H460 it was over 10 µM; in the experiment with TE-1, over 10 µM; in the experiment with PC-3, over 10 µM; in the experiment with MGC-803 it was 3.82 µM; in the experiment with HCT-116, over 10 µM. Moreover, the IC50 in the experiment with SMMC-7721 is 2.99 µM. In addition, in the experiment on H9c2 [1], the Activity is reported as 73.84%.
`Cc1ccccc1-c1cc(C(=O)NCc2ccc(C(=O)NO)cc2)c2nccn2c1`: the IC50 in the experiment with PANC-1 was over 10 µM; with NCI-H460, 8.67 µM; in the experiment with TE-1, 2.56 µM; in the experiment on PC-3, over 10 µM; in the experiment on MGC-803, 1.31 µM; in the experiment with HCT-116, 9.49 µM. The IC50 with SMMC-7721 came to 2.6 µM. In the experiment on H9c2 [1], the Activity is 63.03%.
For the compound `O=C(NO)c1ccc(NCc2cc(-c3cccc(Br)c3)cn3ccnc23)cc1`, the IC50 in the experiment on PANC-1 was over 10 µM; in the experiment on NCI-H460 it was 9.44 µM; in the experiment with TE-1, 6.23 µM; in the experiment on PC-3, over 10 µM; with MGC-803 it was 5.07 µM; in the experiment on HCT-116, over 10 µM. Moreover, the IC50 in the experiment with SMMC-7721 turned out to be 3.18 µM. In the experiment on H9c2 [1], the Activity amounted to 98.49%.
With `O=C(CCCCCCC(=O)Nc1ccccc1)NO` [VORINOSTAT], in the experiment on Mus musculus [6], the result was inactive. Further, in the experiment with TE-1, the half-inhibitory concentration (IC50) is 2.25 µM. Also, the result in the experiment on Mus musculus [7] was Active. Further, in the experiment on H9c2 [1], the Activity came out at 71.54%.
As for `O=C(NO)c1ccc(CNc2cc(-c3cccc(F)c3)cn3ccnc23)cc1`, the “fold change (FC)” value in the experiment on H9c2 [2] came out at 1.5. For the same compound, in the experiment with H9c2 [1], the Activity is listed as 72.58%.
As to `Cc1ccc(-c2cc(C(=O)NCc3ccc(C(=O)NO)cc3)c3nccn3c2)cc1`, the IC50 with PANC-1 is 6.15 µM; in the experiment on NCI-H460 it was over 10 µM; in the experiment with TE-1 it was 5.54 µM; in the experiment with PC-3 it was over 10 µM; with MGC-803 it was 1.17 µM; in the experiment with HCT-116 it was over 10 µM. In the experiment with SMMC-7721, the IC50 was 1.85 µM. The figures for the Activity in the experiment on H9c2 [4] and in the experiment with H9c2 [1] were 83.58% and 84.83%, respectively.

In general, IC50 refers to the point on the concentration scale where inhibition reaches its midpoint. The term inhibition denotes how much of the control response was suppressed. High values mean a response far below the control, low ones a response near the control.
